From patent publication US5432270A, “DNA encoding tracheal antimicrobial peptides” (priority 1993, dated 1995)

Tests used:
Experiment in all cases: Minimal inhibitory concentration in 0.25x TSB, microtiter plates
Type in all cases: cell-based
[1] = tested on: Escherichia coli strain D31; details: E. coli
Experimental: (§1) Antimicrobial activity of TAP (SEQ ID NO: 1) and
(§2) Magainin 2-NH2 (SEQ ID NO: 6). Minimal inhibitory
(§3) concentrations were determined by incubating approximately
(§4) 3.125 μg/ml of the appropriate peptide.
*strain D31 (Steiner, H. D., Hultmark, A., supra, (1981)

[2] = tested on: Candida albicans (ATCC 14053)
Experimental: as §1, §2, §3, §4

[3] = tested on: Klebsiella pneumonia (ATCC 13883)
Experimental: as §1, §2, §3, §4

[4] = tested on: Pseudomonas aeruginosa (ATCC 27853); details: 2.5 × 10^4 microbe in 0.25× TSB, overnight 37° C.
Experimental: as §1, §2, §3, §4

[5] = tested on: Staphylococcus aureus (ATCC 25923); details: 2.5 × 10^4 microbe in 0.25× TSB, overnight 37° C.
Experimental: as §1, §2, §3, §4

Substance: TAP: 38-residue cysteine-rich antimicrobial peptide purified from bovine tracheal mucosa, SEQ ID NO:1 (NPVSCVRNKGICVPIRCPGSMKQIGTCVGRAVKCCRKK)
- Antimicrobial activity in vitro (in words) [1]: most active
- Antimicrobial activity in vitro (in words) ([2]; C. albicans): significant antimicrobial activity
- Minimal inhibitory concentration ([2]; Candida albicans ATCC 14053, 2.5 × 10^4 microbe in 0.25× TSB, overnight 37° C.): 6.25 to 12.5 µg/mL
- Antimicrobial activity in vitro (in words) ([3]; K. pneumonia): most active
- Minimal inhibitory concentration ([3]; Klebsiella pneumonia ATCC 13883, 2.5 × 10^4 microbe in 0.25× TSB, overnight 37° C.): 12.5 to 25 µg/mL
- Minimal inhibitory concentration [4]: 25 to 50 µg/mL
- Minimal inhibitory concentration [5]: 25 to 50 µg/mL
